Experimental data from article PMC11589570, “Critical assessment of LC3/GABARAP ligands used for degrader development and ligandability of LC3/GABARAP binding pockets” (Nature Communications, 2024).
“And” between values parts separate entries of the source, which are not always exact repeats. Identical values can stand only once.

What was measured:
GABARAPL2 = GABARAPL2 (Homo sapiens, UniProt P60520); assay: FP assay with Cy5-labelled p62 LIR tracer (protein titration and tracer displacement); conditions: GABARAPL2; log10 concentration [M] -8.08092
U2OS cells = assay: Cell growth assay (IncuCyte confluence over 72 h); format: cell-based; parameters: key to U2OS cell growth: % of well area covered by cells (confluence); conditions: listed as AN1
How it was run: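 U2OS cells were grown in DMEM with 10% FBS for 24 h before treatment. Confluence was then tracked by IncuCyte phase imaging over 72 h and expressed as % of well area covered by cells. Each point is the average of three wells.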

GABARAPL1 = GABARAPL1 (Homo sapiens, UniProt Q9H0R8); assay: FP assay with Cy5-labelled p62 LIR tracer (protein titration and tracer displacement); format: binding; conditions: for normalized FP signal, p62 LIR tracer displacement: GABARAPL1; for compound titration GABARAPL1 (displacement curve, FP signal): two replicate columns per compound; for FP tracer displacement curve signal (compound titration): duplicate values
[1] = log10 concentration [M] -5.69897, listed as AN1
[2] = log10 concentration [M] -6.22185, listed as AN1
[3] = log10 concentration [M] -6.69897, listed as AN1
[4] = log10 concentration [M] -7.30103, listed as AN1
[5] = log10 concentration [M] -7.79588, listed as AN1
[6] = log10 concentration [M] -8.08092, listed as AN1

Chain of GABARAPL1 (Q9H0R8 whole entry): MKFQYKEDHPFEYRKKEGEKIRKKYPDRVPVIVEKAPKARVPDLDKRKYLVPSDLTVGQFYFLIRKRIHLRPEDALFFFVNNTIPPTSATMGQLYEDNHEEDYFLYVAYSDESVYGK
Chain of GABARAPL2 (P60520 whole entry): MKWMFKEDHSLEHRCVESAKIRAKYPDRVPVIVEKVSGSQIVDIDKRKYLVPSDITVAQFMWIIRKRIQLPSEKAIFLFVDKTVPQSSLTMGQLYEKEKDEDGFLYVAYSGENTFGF

**Q.** Which “normalized FP signal, p62 LIR tracer displacement” value (from here on “normalized FP signal”) (GABARAPL2) does the source give for `O=C1Nc2ccc(Br)cc2C1=Cc1cc(O)c(O)c(Br)c1` [compound 1] here?
**A.** 93.6

**Q.** What about the U2OS cell growth (U2OS cells; 100 nM, time 12 h) of the same compound?
**A.** 35.4537 and 32.3571 and 35.5968

**Q.** And the U2OS cell growth (U2OS cells; 100 nM, time 14 h)?
**A.** 36.0873 and 39.0366 and 39.8543

**Q.** And the U2OS cell growth (U2OS cells; 100 nM, time 16 h)?
**A.** 40.1608 and 39.3939 and 40.4478

**Q.** And the U2OS cell growth (U2OS cells; 100 nM, time 18 h)?
**A.** 39.1099 and 37.1872 and 41.4362

**Q.** What about the U2OS cell growth (U2OS cells; 100 nM, time 20 h) of the same compound?
**A.** 43.7035 and 39.6959 and 46.4166

**Q.** What about the U2OS cell growth (U2OS cells; 500 nM, time 10 h) of the same compound?
**A.** 38.9338 and 41.9757 and 41.002

**Q.** What about the U2OS cell growth (U2OS cells; 500 nM, time 12 h) of the same compound?
**A.** 39.0148 and 42.3639 and 41.6671

**Q.** And the U2OS cell growth (U2OS cells; 500 nM, time 14 h)?
**A.** 46.8116 and 46.7871 and 49.5823

**Q.** What about the U2OS cell growth (U2OS cells; 500 nM, time 16 h) of the same compound?
**A.** 47.3468 and 53.1118 and 48.7734

**Q.** And the U2OS cell growth (U2OS cells; 500 nM, time 18 h)?
**A.** 38.8125 and 47.7715 and 46.4243

**Q.** And the U2OS cell growth (U2OS cells; 1 uM, time 10 h)?
**A.** 48.4994 and 57.2399 and 59.5515

**Q.** What about the U2OS cell growth (U2OS cells; 1 uM, time 12 h) of the same compound?
**A.** 47.4737 and 55.8868 and 54.1029

**Q.** What about the U2OS cell growth (U2OS cells; 1 uM, time 14 h) of the same compound?
**A.** 46.9999 and 57.1898 and 59.5195

**Q.** And the U2OS cell growth (U2OS cells; 1 uM, time 16 h)?
**A.** 54.858 and 68.5371 and 64.7822

**Q.** And the U2OS cell growth (U2OS cells; 1 uM, time 18 h)?
**A.** 48.8637 and 59.8627 and 56.3987

**Q.** And the U2OS cell growth (U2OS cells; 1 uM, time 20 h)?
**A.** 55.1556

**Q.** What about the U2OS cell growth (U2OS cells; 3 uM, time 10 h) of the same compound?
**A.** 50.7422 and 64.1291 and 54.5819

**Q.** What about the U2OS cell growth (U2OS cells; 3 uM, time 12 h) of the same compound?
**A.** 47.9181 and 60.7394 and 55.125

**Q.** And the U2OS cell growth (U2OS cells; 3 uM, time 14 h)?
**A.** 49.0342 and 60.5893 and 56.0885

**Q.** And the U2OS cell growth (U2OS cells; 3 uM, time 16 h)?
**A.** 57.6695 and 67.0321 and 61.6341

**Q.** What about the U2OS cell growth (U2OS cells; 3 uM, time 18 h) of the same compound?
**A.** 48.0442 and 62.2285 and 59.0264

**Q.** What about the U2OS cell growth (U2OS cells; 3 uM, time 20 h) of the same compound?
**A.** 51.1291 and 66.3122 and 66.4452

**Q.** And the U2OS cell growth (U2OS cells; 5 uM, time 10 h)?
**A.** 55.0487 and 54.3842 and 51.4536

**Q.** What about the U2OS cell growth (U2OS cells; 5 uM, time 12 h) of the same compound?
**A.** 54.96 and 58.942 and 53.816

**Q.** And the U2OS cell growth (U2OS cells; 5 uM, time 14 h)?
**A.** 49.0714 and 54.2863 and 67.0438

**Q.** What about the U2OS cell growth (U2OS cells; 5 uM, time 16 h) of the same compound?
**A.** 60.7907 and 61.6888 and 65.4648

**Q.** And the U2OS cell growth (U2OS cells; 5 uM, time 18 h)?
**A.** 57.5124 and 66.5017 and 59.7417

**Q.** What about the U2OS cell growth (U2OS cells; 5 uM, time 20 h) of the same compound?
**A.** 63.2102 and 60.2689 and 68.651

**Q.** And the U2OS cell growth (U2OS cells; 10 uM, time 10 h)?
**A.** 59.7697 and 44.8684 and 48.7466

**Q.** What about the U2OS cell growth (U2OS cells; 10 uM, time 12 h) of the same compound?
**A.** 61.5092 and 47.1657 and 52.5139

**Q.** And the U2OS cell growth (U2OS cells; 10 uM, time 14 h)?
**A.** 62.1617 and 46.5884 and 50.2783

**Q.** And the U2OS cell growth (U2OS cells; 10 uM, time 16 h)?
**A.** 65.2687 and 51.6571 and 54.5952

**Q.** What about the U2OS cell growth (U2OS cells; 10 uM, time 18 h) of the same compound?
**A.** 66.9364 and 52.1914 and 55.4238

**Q.** What about the U2OS cell growth (U2OS cells; 10 uM, time 20 h) of the same compound?
**A.** 65.8459 and 51.6884 and 56.9826

**Q.** And the “normalized FP signal” value (GABARAPL1; log10 concentration [M] -3.82391, listed as AN1)?
**A.** 89.2857 and 90

**Q.** What about the “normalized FP signal” value (GABARAPL1; log10 concentration [M] -4.1549, listed as AN1) of the same compound?
**A.** 93.2857 and 94.1429

**Q.** And the “normalized FP signal” value (GABARAPL1; log10 concentration [M] -4.60206, listed as AN1)?
**A.** 92.8571 and 97.1429

**Q.** And the “normalized FP signal” value (GABARAPL1; log10 concentration [M] -5, listed as AN1)?
**A.** 95.2857 and 96.7143

**Q.** And the “normalized FP signal” value (GABARAPL1; log10 concentration [M] -5.30103)?
**A.** 97.7143

**Q.** What about the “normalized FP signal” value (GABARAPL1; [1]) of the same compound?
**A.** 89.4286 and 95

**Q.** And the “normalized FP signal” value (GABARAPL1; [2])?
**A.** 93.8571 and 97.2857

**Q.** What about the “normalized FP signal” value (GABARAPL1; [3]) of the same compound?
**A.** 97.1429 and 99.8571

**Q.** And the “normalized FP signal” value (GABARAPL1; [4])?
**A.** 96 and 96.1429

**Q.** What about the “normalized FP signal” value (GABARAPL1; [5]) of the same compound?
**A.** 97.7143 and 93.4286

**Q.** And the “normalized FP signal” value (GABARAPL1; [6])?
**A.** 99

**Q.** What about the “compound titration GABARAPL1 (displacement curve, FP signal)” value (“compound titration GABARAPL1” for short) (GABARAPL1; log10 concentration [M] -3.82391) of the same compound?
**A.** 89.2857 and 90

**Q.** And the “compound titration GABARAPL1” value (GABARAPL1; log10 concentration [M] -4.1549)?
**A.** 93.2857 and 94.1429

**Q.** And the “compound titration GABARAPL1” value (GABARAPL1; log10 concentration [M] -4.60206)?
**A.** 92.8571 and 97.1429

**Q.** And the “compound titration GABARAPL1” value (GABARAPL1; log10 concentration [M] -5)?
**A.** 95.2857 and 96.7143

**Q.** And the “FP tracer displacement curve signal (compound titration)” value (“FP tracer displacement curve signal” below) (GABARAPL1; [1])?
**A.** 89.4286 and 95

**Q.** And the “FP tracer displacement curve signal” value (GABARAPL1; [2])?
**A.** 93.8571 and 97.2857

**Q.** What about the “FP tracer displacement curve signal” value (GABARAPL1; [3]) of the same compound?
**A.** 97.1429 and 99.8571

**Q.** What about the “FP tracer displacement curve signal” value (GABARAPL1; [4]) of the same compound?
**A.** 96 and 96.1429

**Q.** And the “FP tracer displacement curve signal” value (GABARAPL1; [5])?
**A.** 97.7143 and 93.4286

**Q.** What about the “FP tracer displacement curve signal” value (GABARAPL1; [6]) of the same compound?
**A.** 99
